Results taken from patent US12540128B2, “Substituted pyridazinones as herbicides” (SYNGENTA CROP PROTECTION AG, priority 2019, dated 2026).

How the values were obtained:
Type in all cases: in vivo
Conditions in all cases: 250 g/ha, after 13 days
[1] = system: Echinochloa crus-galli (ECHCG); assay: B4 Pre-Emergence Efficacy Test 2
Experimental: (§1) Seeds of a variety of test species were sown in standard soil in pots: Amaranthus retoflexus (AMARE), Setaria faberi (SETFA), Echinochloa crus-galli (ECHCG), Ipomoea hederacea (IPOHE), Zea Mays (ZEAMX), Abutilon theophrasti (ABUTH). After cultivation for one day (pre-emergence) under controlled conditions in a glasshouse (at 24/16° C., day/night; 14 hours light; 65% humidity), the plants were sprayed with an aqueous spray solution derived from the formulation of the technical active ingredient in acetone/water (50:50) solution containing 0.5% Tween 20 (polyoxyethelyene sorbitan monolaurate, CAS RN 9005-64-5). Compounds are applied at 250 g/ha. The test plants were then grown in a glasshouse under controlled conditions (at 24/16° C., day/night; 14 hours light; 65% humidity) and watered twice daily. After 13 days, the test is evaluated for the percentage damage caused to the plant. The biological activities are assessed on a five point scale (5=80-100%; 4=60-79%; 3=40-59%; 2=20-39%; 1=0-19%). A blank value in the table is indicative that the compound was not tested on that species.

Zea Mays (ZEAMX) [2] = assay: B4 Pre-Emergence Efficacy Test 2
Experimental: as §1

[3] = system: Amaranthus retoflexus (AMARE); assay: B4 Pre-Emergence Efficacy Test 2
Experimental: as §1

Setaria faberi (SETFA) [4] = assay: B4 Pre-Emergence Efficacy Test 2
Experimental: as §1

[5] = system: Ipomoea hederacea (IPOHE); assay: B4 Pre-Emergence Efficacy Test 2
Experimental: as §1

[6] = system: Abutilon theophrasti (ABUTH); assay: B4 Pre-Emergence Efficacy Test 2
Experimental: as §1

[7] = system: Echinochloa crus-galli (ECHCG); assay: B2 Post-Emergence Efficacy Test 2
Experimental: (§2) Seeds of a variety of test species are sown in standard soil in pots:— Amaranthus retoflexus (AMARE), Setaria faberi (SETFA), Echinochloa crus-galli (ECHCG), Ipomoea hederacea (IPOHE), Zea Mays (ZEAMX), Abutilon theophrasti (ABUTH). After 8 days cultivation (post-emergence) under controlled conditions in a glasshouse (at 24/16° C., day/night; 14 hours light; 65% humidity), the plants are sprayed with an aqueous spray solution derived from the formulation of the technical active ingredient in acetone/water (50:50) solution containing 0.5% Tween 20 (polyoxyethylene sorbitan monolaurate, CAS RN 9005-64-5). Compounds are applied at 250 g/ha. The test plants are then grown in a glasshouse under controlled conditions in a glasshouse (at 24/16° C., day/night; 14 hours light; 65% humidity) and watered twice daily. After 13 days, the test is evaluated for the percentage damage caused to the plant. The biological activities are assessed on a five point scale (5=80-100%; 4=60-79%; 3=40-59%; 2=20-39%; 1=0-19%). A blank value in the table is indicative that the compound was not tested on that species.

Zea Mays (ZEAMX) [8] = assay: B2 Post-Emergence Efficacy Test 2
Experimental: as §2

[9] = system: Amaranthus retoflexus (AMARE); assay: B2 Post-Emergence Efficacy Test 2
Experimental: as §2

Setaria faberi (SETFA) [10] = assay: B2 Post-Emergence Efficacy Test 2
Experimental: as §2

[11] = system: Ipomoea hederacea (IPOHE); assay: B2 Post-Emergence Efficacy Test 2
Experimental: as §2

[12] = system: Abutilon theophrasti (ABUTH); assay: B2 Post-Emergence Efficacy Test 2
Experimental: as §2

Row | SMILES | percentage damage caused to the plant, five point scale, ECHCG [1] | percentage damage caused to the plant, five point scale, ZEAMX (Zea Mays (ZEAMX) [2]) | percentage damage caused to the plant, five point scale, AMARE [3] | percentage damage caused to the plant, five point scale, SETFA (Setaria faberi (SETFA) [4]) | percentage damage caused to the plant, five point scale, IPOHE [5] | percentage damage caused to the plant, five point scale, ABUTH [6] | percentage damage caused to the plant, five point scale, ECHCG [7] | percentage damage caused to the plant, five point scale, ZEAMX (Zea Mays (ZEAMX) [8]) | percentage damage caused to the plant, five point scale, AMARE [9] | percentage damage caused to the plant, five point scale, SETFA (Setaria faberi (SETFA) [10]) | percentage damage caused to the plant, five point scale, IPOHE [11] | percentage damage caused to the plant, five point scale, ABUTH [12]
1 | Cc1nn(C)c(=O)c(-c2c(F)ccc(Cl)c2CCc2cccc3ccccc23)c1O [Compound 1.044] | 0 | 1 (1=0-19%) | 2 (2=20-39%) | 0 | 3 (3=40-59%) | 3 (3=40-59%) | 0 | 1 (1=0-19%) | 3 (3=40-59%) | 0 | 4 (4=60-79%) | 3 (3=40-59%)
2 | Cc1nn(C)c(=O)c(-c2c(F)ccc(Cl)c2CCc2ccc3ccccc3c2)c1O [Compound 1.053] | 2 (2=20-39%) | 1 (1=0-19%) | 4 (4=60-79%) | 2 (2=20-39%) | 1 (1=0-19%) | 2 (2=20-39%) | 3 (3=40-59%) | 4 (4=60-79%) | 4 (4=60-79%) | 4 (4=60-79%) | 4 (4=60-79%) | 3 (3=40-59%)
3 | Cc1nn(C)c(=O)c(-c2c(F)ccc(Cl)c2CCc2ccc3c(c2)OC(C)(C)C3)c1O [Compound 1.340] | 5 (5=80-100%) | 3 (3=40-59%) | 5 (5=80-100%) | 5 (5=80-100%) | 5 (5=80-100%) | 5 (5=80-100%) | 5 (5=80-100%) | 5 (5=80-100%) | 5 (5=80-100%) | 5 (5=80-100%) | 4 (4=60-79%) | 5 (5=80-100%)
4 | Cc1nc2ccc(CCc3c(Cl)ccc(F)c3-c3c(O)c(C)nn(C)c3=O)cc2o1 [Compound 1.341] | 5 (5=80-100%) | 4 (4=60-79%) | 5 (5=80-100%) | 5 (5=80-100%) | 5 (5=80-100%) | 5 (5=80-100%) | 5 (5=80-100%) | 4 (4=60-79%) | 5 (5=80-100%) | 4 (4=60-79%) | 5 (5=80-100%) | 5 (5=80-100%)
5 | Cc1nn(C)c(=O)c(-c2c(F)ccc(Cl)c2CCc2ccc3c(c2)OC(F)(F)O3)c1O [Compound 1.342] | 5 (5=80-100%) | 1 (1=0-19%) | 5 (5=80-100%) | 5 (5=80-100%) | – | 4 (4=60-79%) | 5 (5=80-100%) | 4 (4=60-79%) | 5 (5=80-100%) | 4 (4=60-79%) | 5 (5=80-100%) | 5 (5=80-100%)
6 | Cc1nn(C)c(=O)c(-c2c(F)ccc(Cl)c2CCc2nn(C)c3ccccc23)c1O [Compound 1.344] | 2 (2=20-39%) | 0 | 3 (3=40-59%) | 2 (2=20-39%) | 3 (3=40-59%) | 4 (4=60-79%) | 2 (2=20-39%) | 1 (1=0-19%) | 3 (3=40-59%) | – | 3 (3=40-59%) | 4 (4=60-79%)
7 | Cc1nn(C)c(=O)c(-c2c(F)ccc(Cl)c2CCc2cnc3c(ccn3C)c2)c1O [Compound 1.345] | 2 (2=20-39%) | 1 (1=0-19%) | 5 (5=80-100%) | 5 (5=80-100%) | 5 (5=80-100%) | 4 (4=60-79%) | 3 (3=40-59%) | 2 (2=20-39%) | 4 (4=60-79%) | 4 (4=60-79%) | 4 (4=60-79%) | 4 (4=60-79%)
8 | Cc1nn(C)c(=O)c(-c2c(F)ccc(Cl)c2CCc2ccc3occc3c2)c1O [Compound 1.346] | 0 | 1 (1=0-19%) | 3 (3=40-59%) | 0 | 3 (3=40-59%) | 4 (4=60-79%) | 4 (4=60-79%) | 2 (2=20-39%) | 2 (2=20-39%) | 0 | 3 (3=40-59%) | 4 (4=60-79%)
9 | Cc1nn(C)c(=O)c(-c2c(F)ccc(Cl)c2CCc2ccc3ccsc3c2)c1O [Compound 1.347] | 2 (2=20-39%) | 3 (3=40-59%) | 5 (5=80-100%) | 3 (3=40-59%) | 5 (5=80-100%) | 5 (5=80-100%) | 4 (4=60-79%) | 4 (4=60-79%) | 4 (4=60-79%) | 4 (4=60-79%) | 4 (4=60-79%) | 4 (4=60-79%)
10 | Cc1nn(C)c(=O)c(-c2c(F)ccc(Cl)c2CCc2ccc3sccc3c2)c1O [Compound 1.348] | 4 (4=60-79%) | 1 (1=0-19%) | 5 (5=80-100%) | 3 (3=40-59%) | 5 (5=80-100%) | 3 (3=40-59%) | 4 (4=60-79%) | 4 (4=60-79%) | 4 (4=60-79%) | 4 (4=60-79%) | 4 (4=60-79%) | 3 (3=40-59%)
